Measured values reported in PubChem BioAssay (NCI).
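Results reflect a 48-hour exposure of cells in 96-well plates to compound at five concentrations. At the GI50, growth is halved. The concentration for full growth arrest is given as TGI.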

System: MDA-MB-468 breast
Assay: NCI anticancer screen, dose series, 48 h

| Structure (SMILES) | GI50 | TGI |
| --- | --- | --- |
| COc1cc2c(cc1Nc1nc(Nc3cccc(F)c3C(N)=O)c3cc[nH]c3n1)N(C(=O)CN1CCN(C(C)C)CC1)CC2 | 2220 nM | 5730 nM |
| COc1ccc(Nc2cc(C)nc(NCCCNc3ccnc4cc(Cl)ccc34)n2)cc1 | 1390 nM | 2790 nM |
| COc1cc(/C=C/C(=O)N2CCN(C(=O)c3cc(OC)c(OC)c(OC)c3)CC2)ccc1OCCCOc1cc2c(cc1OC)C(=O)N1CCC[C@H]1C=N2 | 102 nM | 336 nM |
| COc1ccc(/C=C/C(=O)c2ccc(OC)c(OC)c2)cc1O | 3590 nM | 19600 nM |
| O=C(/C=C/c1csc(Br)n1)NO | 2900 nM | 21500 nM |
| CCOc1cccc(-c2nc(N)nc(Nc3ccccc3SSc3ccccc3Nc3nc(N)nc(-c4cccc(OCC)c4)n3)n2)c1 | 24200 nM | > 100000 nM |
| COc1ccc(C2=NN(C(=O)c3cc(OC)c(OC)c(OC)c3)C(c3ccc(N(C)C)cc3)C2)cc1 (stereo not drawn) | 236 nM | 644 nM |
| CC(=O)Oc1ccc(/C(=C(\C)c2ccc(Cl)cc2)c2ccc(OCCN3CCCCC3)cc2)cc1 | 1450 nM | 3210 nM |
| O=c1oc2ccc(Br)cc2c(=O)n1-c1ccc(I)cc1F | 547 nM | 2040 nM |
| COc1cc(-c2cc(-c3cc(OC)c(OC)c(OC)c3)nc3nc(N)[nH]c(=O)c23)ccc1Oc1ccnc2cc(Cl)ccc12 | 3240 nM | > 100000 nM |
| CC(=O)OC1CC2C3CCC4C[C@@H](NC(=O)C=C(C)C)CC[C@]4(C)C3CC[C@]2(C)[C@H]1C(C)N(C)C (stereo partly drawn) | 800 nM | 2370 nM |
| Oc1cc2ccccc2c(-c2c(O)c(O)cc3ccccc23)c1O | 1090 nM | 17200 nM |
| N#C[Se]CCCNS(=O)(=O)C1CC2C=CC1C2 (stereo not drawn) | 1290 nM | 4160 nM |
| COc1cc(C(=O)N/N=C/c2ccc(N(C)C)cc2)cc(OC)c1OC | 225 nM | 1190 nM |
| Cn1c(/C=C/[N+](=O)[O-])cc2ccccc21 | 1770 nM | 3370 nM |
| Cc1ccc(Cl)c(Nc2ccccc2C(=O)O)c1Cl | 25900 nM | 67200 nM |

| Structure (SMILES) | GI50 | TGI |
| --- | --- | --- |
| Cc1ccc(NC(=O)c2sc3nc4c(cc3c2N)C(=O)CCC4)cc1C | 314 nM | > 100000 nM |
| CN(C)c1ccc(/C=C/C2=[N+](C)c3ccccc3C2(C)C)cc1 | 555 nM | 6190 nM |
| O=C(Nc1n[nH]c2nnc(-c3cccnc3)cc12)C1CC1 | 805 nM | 5020 nM |
| CN1C/C=C/CCOc2cccc(c2)-c2ccnc(n2)Nc2cccc(c2)C1 | 36.6 nM | 107 nM |
| CCN(CC)Cc1c(/C=C\c2cc(OC)c(OC)c(OC)c2)ccc(OC)c1O | 7970 nM | 34000 nM |
| Cn1cc(C2=C(c3cn(C)c4ccccc34)C(=O)NC2=O)c2ccccc21 | 650 nM | > 25000 nM |
| CCCCCCCCn1ccc2cc(NC(=O)Cn3cc(CN4CCCCC4)nn3)ccc21 | 1670 nM | 3730 nM |
| CC(=O)c1cc(C(=O)c2ccc3c(c2)Sc2ccccc2N3)c2cc(C)ccn12 | 66.3 nM | 7210 nM |
| COc1cc(C(=O)Nc2cc(OC)c3ccn(C)c3c2)cc2c1C[C@]1(C)CC[C@@H](O)C(C)(C)[C@H]1O2 | 488 nM | 3010 nM |
| O=C1OCC2=C1C(c1ccc(Cl)c(Cl)c1)c1cc3c(cc1N2CCO)CCC3 (stereo not drawn) | 109 nM | 350 nM |
| O=C1c2cccc(NCCN=Cc3ccccc3O)c2C(=O)c2c(NCCN=Cc3ccccc3O)cccc21 | – | 191 nM |
| CCOC(=O)C(=O)/C(=C/N1C(=O)CC(=O)NC1=S)C(=O)OCC | > 100000 nM | > 100000 nM |
| CCN(CC)C1CCC(Nc2c(C(C)=O)cnc3ccc(-c4ccc(O)c(Cl)c4)cc23)CC1 (stereo not drawn) | 871 nM | 15800 nM |
| Cn1c(=O)c(Oc2ccc(F)cc2F)cc2cnc(NC3CCS(=O)(=O)CC3)nc21 | > 25000 nM | > 25000 nM |
| NC(N)=N/N=C/c1ccc(-c2ccc(-c3cc(Cl)cc(Cl)c3)s2)cc1 | 1830 nM | 3810 nM |
| COc1ccc(/C=C2\C=C(c3ccccc3)N(CCc3ccccc3)C2=O)cc1OC | 7570 nM | 42400 nM |
